Our source for the Papp A→B, Papp B→A and efflux ratio values is patent US12102648B2, “Orally-bioavailable nucleoside analogs” (priority 2021, dated 2024).

A short description of this data set: in vitro. It counts as in vitro ADME. As to conditions: human. On the procedure:
The bidirectional permeability of compounds across the Caco-2 cell monolayer was assessed. The Caco-2 model is a widely used in vitro model for small intestinal absorption and potential for efflux.
Cell culture. Caco-2 cells were grown in DMEM supplemented with 10% fetal bovine serum (FBS), 1% Penicillin-Streptomycin and 1% MEM NEAA. The cells were incubated at 37° C., 5% CO2/95% air and saturated humidity. After reaching 80-90% confluency, the cells were gently detached with trypsin. Cells at passage 39 were seeded on the 24-well BD insert system at the density of 8×10^4 cells/cm^2 and cultured for 19 days with medium changed every 2-3 days. Measure the transepithelial electrical resistance (TEER) value of each well. The wells can be used only when their TEER values are greater than 600 Ohms/cm^2.
Transport assay. After removing the cell culture medium from the 24-well insert plate, the cells were rinsed with warm transport buffer. Appropriate dosing and receiving solutions were applied to the donor and receiver chambers to initiate the transport assay in apical to basolateral (A to B) or basolateral to apical (B to A) directions ([…] for apical and basolateral wells, respectively). Duplicate wells in each direction were used for the test compound and control compound. The plate was incubated in CO2 incubator at 37° C., with 5% CO2/95% air and saturated humidity without shaking. The sample after 10-minute incubation was used as the T0 sample, and the sample after 90-minute incubation was used as the T90 sample. To and T90 samples were collected from the donor and receiver side of each well at the designed timepoint, mixed with the transport buffer and acetonitrile/MeOH (1:1, v/v) and the internal standard for LC/MS/MS analysis. All samples were vortexed and centrifuged at 4000 rpm at 4° C. for 15 minutes, diluted with pure water and stored at 4° C. before bioanalysis by LC/MS/MS.
Sample analysis. The concentrations of test compounds and control compounds in Caco-2 cells were quantitatively determined by LC/MS/MS method after protein precipitation.
Calculations. The apparent permeability (Papp, cm/s), efflux ratio (ER) and recovery parameters were calculated for Caco-2 drug transport assay using the following equations:
[formula] [formula] where VR is the solution volume in the receiver chamber (0.4 mL on the apical side, 1.2 mL on the basolateral side); Area is the surface area for the insert membrane, i.e., 0.3 cm^2 for the area of the monolayer; Time is incubation time, expressed in seconds, i.e., 5400 s (90 min) for the current experiment; Co is the initial concentration of test compound or peak area ratio of control compounds in the donor chamber (μM); VD is the volume in the donor chambers (0.4 mL on the apical side, 1.2 mL on the basolateral side); CD and CR are the final concentrations of test compounds or peak area ratio of control compounds in donor and receiver chambers, respectively.
Compounds with Papp<1.0 are classified as low permeability, Papp between 1-10 are classified as medium permeability, and Papp≥10 are classified as high permeability. An efflux ratio (ER)>2 indicates the compounds are potential substrates for intestinal cell efflux transporters.

Setting [1] is: Caco-2 monolayer, apical to basolateral, 90-minute incubation, read-out: Papp, A-B.
Setting [2] is: Caco-2 monolayer, basolateral to apical, 90-minute incubation, read-out: Papp, B-A.
Setting [3] is: Caco-2 monolayer, ER>2 indicates potential efflux transporter substrate, read-out: ER (efflux ratio).

As usually defined, the Papp A→B is how fast a substance crosses the layer from the apical side. Usually Papp B→A stands for how fast a substance crosses the layer from the basolateral side.

Read-outs that look alike come from different tables or passages of the source.

Regarding `CC(=O)OC[C@H]1O[C@@](C#N)(c2ccc3c(N)ncnn23)[C@H](O)[C@@H]1OC(=O)CC(C)C` [Compound 49, (2R,3S,4R,5R)-2-(acetoxymethyl)-5-(4-aminopyrrolo[2,1-f][1,2,4]triazin-7-yl)-5-cyano-4-hydroxytetrahydrofuran-3-yl 3-methylbutanoate], under “Caco-2”, the Papp A→B at 90 min was 3.9 ×10⁻⁶ cm/s, the Papp B→A at 90 min turned out to be 2.7 ×10⁻⁶ cm/s and the efflux ratio at 90 min was 0.7.

Turning to `CC(=O)OC[C@H]1O[C@@](C#N)(c2ccc3c(N)ncnn23)[C@H](O)[C@@H]1OC(=O)CC1CCCCC1` [Compound 50, (2R,3S,4R,5R)-2-(acetoxymethyl)-5-(4-aminopyrrolo[2,1-f][1,2,4]triazin-7-yl)-5-cyano-4-hydroxytetrahydrofuran-3-yl 2-cyclohexylacetate], where the note is “Caco-2”, the Papp A→B at 90 min is 1.9 ×10⁻⁶ cm/s, the Papp B→A at 90 min turned out to be 0.76 ×10⁻⁶ cm/s and the efflux ratio at 90 min is 0.39.

On to `CC(=O)OC[C@H]1O[C@@](C#N)(c2ccc3c(N)ncnn23)[C@H](O)[C@@H]1OC(=O)Cc1ccccc1` [Compound 52, (2R,3S,4R,5R)-2-(acetoxymethyl)-5-(4-aminopyrrolo[2,1-f][1,2,4]triazin-7-yl)-5-cyano-4-hydroxytetrahydrofuran-3-yl 2-phenylacetate], for which, under setting [1], the Papp A→B at 90 min stood at 1.4 ×10⁻⁶ cm/s. Under setting [2], the Papp B→A at 90 min turned out to be 0.89 ×10⁻⁶ cm/s. In addition, under setting [3], the efflux ratio at 90 min amounted to 0.65.

For the molecule `CC(=O)OC[C@H]1O[C@@](C#N)(c2ccc3c(N)ncnn23)[C@H](O)[C@@H]1OC(=O)C(C)C` [Compound 54, (2R,3S,4R,5R)-2-(acetoxymethyl)-5-(4-aminopyrrolo[2,1-f][1,2,4]triazin-7-yl)-5-cyano-4-hydroxytetrahydrofuran-3-yl isobutyrate], where the note is “Caco-2”, the Papp A→B at 90 min came out at 2.6 ×10⁻⁶ cm/s, the Papp B→A at 90 min amounted to 2.4 ×10⁻⁶ cm/s and the efflux ratio at 90 min was determined as 0.94.

Take `CC(=O)OC[C@H]1O[C@@](C#N)(c2ccc3c(N)ncnn23)[C@H](O)[C@@H]1OCOC(=O)C(C)(C)C` [Compound 56, {[(2R,3S,4R,5R)-2-[(acetyloxy)methyl]-5-{4-aminopyrrolo[2,1-f][1,2,4]triazin-7-yl}-5-cyano-4-hydroxyoxolan-3-yl]oxy}methyl 2,2-dimethylpropanoate]: under “Caco-2”, the Papp A→B at 90 min was determined as 4.7 ×10⁻⁶ cm/s, the Papp B→A at 90 min is 4 ×10⁻⁶ cm/s and the efflux ratio at 90 min was found to be 0.84.

Take `CC(C)C(=O)OC[C@H]1O[C@@](C#N)(c2ccc3c(N)ncnn23)[C@H](O)[C@@H]1OC(=O)CC1CCCCC1` [Compound 58, ((2R,3S,4R,5R)-5-(4-aminopyrrolo[2,1-f][1,2,4]triazin-7-yl)-5-cyano-3-(2-cyclohexylacetoxy)-4-hydroxytetrahydrofuran-2-yl)methyl isobutyrate]: under “Caco-2”, the Papp A→B at 90 min turned out to be 4.1 ×10⁻⁶ cm/s, the Papp B→A at 90 min turned out to be 2.1 ×10⁻⁶ cm/s and the efflux ratio at 90 min was 0.5.

On to `CC(C)C(=O)OC[C@H]1O[C@@](C#N)(c2ccc3c(N)ncnn23)[C@H](O)[C@@H]1OC(=O)Cc1ccccc1` [Compound 60, ((2R,3S,4R,5R)-5-(4-aminopyrrolo[2,1-f][1,2,4]triazin-7-yl)-5-cyano-4-hydroxy-3-(2-phenylacetoxy)tetrahydrofuran-2-yl)methyl isobutyrate], for which the Papp A→B at 90 min under setting [1] stood at 2.8 ×10⁻⁶ cm/s. Besides, under setting [2], the Papp B→A at 90 min is 1.7 ×10⁻⁶ cm/s. The efflux ratio at 90 min under setting [3] was 0.58.

Regarding `CC(C)C(=O)OC[C@H]1O[C@@](C#N)(c2ccc3c(N)ncnn23)[C@H](O)[C@@H]1OC(=O)C(C)C` [Compound 62, (2R,3S,4R,5R)-5-(4-aminopyrrolo[2,1-f][1,2,4]triazin-7-yl)-5-cyano-4-hydroxy-2-((isobutyryloxy)methyl)tetrahydrofuran-3-yl isobutyrate], for the setting “Caco-2”, the apical-to-basolateral permeability (Papp A→B) at 90 min is 3 ×10⁻⁶ cm/s, the Papp B→A at 90 min worked out at 2.4 ×10⁻⁶ cm/s and the efflux ratio at 90 min turned out to be 0.8.

For the molecule `CC(C)C(=O)OC[C@H]1O[C@@](C#N)(c2ccc3c(N)ncnn23)[C@H](O)[C@@H]1OCOC(=O)C(C)(C)C` [Compound 64, (((2R,3S,4R,5R)-5-(4-aminopyrrolo[2,1-f][1,2,4]triazin-7-yl)-5-cyano-4-hydroxy-2-((isobutyryloxy)methyl)tetrahydrofuran-3-yl)oxy)methyl pivalate], under “Caco-2”, the Papp A→B at 90 min was determined as 5.9 ×10⁻⁶ cm/s, the Papp B→A at 90 min stood at 7.1 ×10⁻⁶ cm/s and the efflux ratio at 90 min came to 1.2.

As to `CCC(=O)OC[C@H]1O[C@@](C#N)(c2ccc3c(N)ncnn23)[C@H](O)[C@@H]1OC(=O)CC1CCCCC1` [Compound 66, [(2R,3S,4R,5R)-5-{4-aminopyrrolo[2,1-f][1,2,4]triazin-7-yl}-5-cyano-3-[(2-cyclohexylacetyl)oxy]-4-hydroxyoxolan-2-yl]methyl propanoate], where the note is “Caco-2”, the Papp A→B at 90 min was found to be 2.7 ×10⁻⁶ cm/s, the Papp B→A at 90 min turned out to be 0.36 ×10⁻⁶ cm/s and the efflux ratio at 90 min was 0.13.

On to `CCC(=O)OC[C@H]1O[C@@](C#N)(c2ccc3c(N)ncnn23)[C@H](O)[C@@H]1OC(=O)[C@@H](N)C(C)C` [Compound 67, (2R,3S,4R,5R)-5-{4-aminopyrrolo[2,1-f][1,2,4]triazin-7-yl}-5-cyano-4-hydroxy-2-[(propanoyloxy)methyl]oxolan-3-yl(2S)-2-amino-3-methylbutanoate], for which, where the note is “Caco-2”, the Papp A→B at 90 min stood at 0.3 ×10⁻⁶ cm/s, the apparent permeability from basolateral to apical (Papp B→A) at 90 min worked out at 0.1 ×10⁻⁶ cm/s and the efflux ratio at 90 min came out at 0.33.

As to `CCC(=O)OC[C@H]1O[C@@](C#N)(c2ccc3c(N)ncnn23)[C@H](O)[C@@H]1OC(=O)Cc1ccccc1` [Compound 68, ((2R,3S,4R,5R)-5-(4-aminopyrrolo[2,1-f][1,2,4]triazin-7-yl)-5-cyano-4-hydroxy-3-(2-phenylacetoxy)tetrahydrofuran-2-yl)methyl propionate], the Papp A→B at 90 min under setting [1] turned out to be 3.3 ×10⁻⁶ cm/s. In addition, the Papp B→A at 90 min under setting [2] worked out at 9.3 ×10⁻⁶ cm/s. Also, the efflux ratio at 90 min under setting [3] came out at 2.8.

Turning to `CCC(=O)OC[C@H]1O[C@@](C#N)(c2ccc3c(N)ncnn23)[C@H](O)[C@@H]1OC(=O)C(C)C` [Compound 70, [(2R,3S,4R,5R)-5-{4-aminopyrrolo[2,1-f][1,2,4]triazin-7-yl}-5-cyano-4-hydroxy-3-[(2-methylpropanoyl)oxy]oxolan-2-yl]methyl propanoate], for the setting “Caco-2”, the Papp A→B at 90 min came to 1.8 ×10⁻⁶ cm/s, the Papp B→A at 90 min turned out to be 1.6 ×10⁻⁶ cm/s and the efflux ratio at 90 min is 0.82.

For the molecule `CCC(=O)OC[C@H]1O[C@@](C#N)(c2ccc3c(N)ncnn23)[C@H](O)[C@@H]1OC(=O)CC` [Compound 71], the Papp A→B at 90 min under setting [1] was determined as 0.94 ×10⁻⁶ cm/s. In addition, under setting [2], the Papp B→A at 90 min turned out to be 2.3 ×10⁻⁶ cm/s. In addition, the efflux ratio at 90 min under setting [3] came to 2.4.

Take `CCC(=O)OC[C@H]1O[C@@](C#N)(c2ccc3c(N)ncnn23)[C@H](O)[C@@H]1OCOC(=O)C(C)(C)C` [Compound 72, {[(2R,3S,4R,5R)-5-{4-aminopyrrolo[2,1-f][1,2,4]triazin-7-yl}-5-cyano-4-hydroxy-2-[(propanoyloxy)methyl]oxolan-3-yl]oxy}methyl 2,2-dimethylpropanoate]: where the note is “Caco-2”, the Papp A→B at 90 min turned out to be 5.8 ×10⁻⁶ cm/s, the Papp B→A at 90 min was determined as 3.2 ×10⁻⁶ cm/s and the efflux ratio at 90 min was 0.55.

As for `CCCCCOC(=O)Nc1ncnn2c([C@]3(C#N)O[C@H](CO)[C@@H](O)[C@H]3O)ccc12` [Compound 81, pentyl (7-((2R,3R,4S,5R)-2-cyano-3,4-dihydroxy-5-(hydroxymethyl)tetrahydrofuran-2-yl)pyrrolo[2,1-f][1,2,4]triazin-4-yl)carbamate], where the note is “Caco-2”, the Papp A→B at 90 min amounted to 1 ×10⁻⁶ cm/s, the Papp B→A at 90 min is 14.7 ×10⁻⁶ cm/s and the efflux ratio at 90 min was determined as 14.

In the case of `CC(C)[C@H](N)C(=O)Nc1ncnn2c([C@]3(C#N)O[C@H](CO)[C@@H](O)[C@H]3O)ccc12` [Compound 83, (2S)-2-amino-N-{7-[(2R,3R,4S,5R)-2-cyano-3,4-dihydroxy-5-(hydroxymethyl)oxolan-2-yl]pyrrolo[2,1-f][1,2,4]triazin-4-yl}-3-methylbutanamide], where the note is “Caco-2”, the Papp A→B at 90 min was 0.07 ×10⁻⁶ cm/s, the Papp B→A at 90 min came to 0.2 ×10⁻⁶ cm/s and the efflux ratio at 90 min is 3.
